From patent US9409905B2, “Antibacterial compounds and methods for use” (PTC THERAPEUTICS, INC., priority 2011, dated 2016)
Values after ≈ are worked out from the molar mass of the structure shown.

Legend:
[1] = system: Escherichia coli (E. coli) BAS849; assay: Antibacterial activity, microbroth dilution MIC (Table 1); type: cell-based; conditions: microbroth dilution, super sensitive Gram-negative E. coli BAS849, read-out: MIC, BAS849
Outline: (§1)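 MIC (μg/mL) is taken as the lowest concentration with no macroscopically visible growth. Strains tested by microbroth dilution: Gram-positive S. aureus 29213, control Gram-negative E. coli 25922, and super-sensitive E. coli BAS849.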

[2] = system: Staphylococcus aureus (S. aureus) 29213; assay: as above; type: cell-based; conditions: microbroth dilution, Gram-positive S. aureus 29213, read-out: MIC, 29213
Outline: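 Broth microdilution against S. aureus 29213, E. coli 25922 and hypersensitive E. coli BAS849. MIC in μg/mL is the lowest drug concentration preventing macroscopically visible growth under test conditions.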

E. coli 25922 = assay: as above; type: cell-based, Escherichia coli; conditions: Escherichia coli; microbroth dilution; control Gram-negative E. coli 25922 strain; read-out: MIC, 25922
Outline: as §1

E. coli LZ3111 = assay: Antibacterial activity, MIC, quinolone resistant strain (Table 2); type: cell-based; conditions: Escherichia coli, LZ3111, read-out: MIC LZ3111
Outline: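 Broth microdilution. Read-out: MIC in μg/mL, taken as lowest concentration with no macroscopically visible growth.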

E. coli ELZ4000 = assay: Antibacterial activity, MIC, multi-drug resistant clinical isolate (Table 3); type: cell-based; conditions: Escherichia coli, ELZ4000, read-out: MIC ELZ4000
Outline: (§2)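 MIC (μg/mL) read as lowest concentration with no macroscopically visible growth, determined by microbroth dilution.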

E. coli ELZ4251 = assay: as above; type: cell-based; conditions: Escherichia coli
Outline: as §2

[3] = system: Acinetobacter baumannii (A. baumannii) BAA747; assay: Antibacterial activity, MIC (Table 4); type: cell-based; conditions: A. baumannii BAA747, read-out: MIC, BAA747
Outline: (§3)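 Compounds are serially diluted in microbroth, bacteria are grown under the test conditions, and growth is then inspected macroscopically. The lowest concentration without visible growth is reported as the MIC (μg/mL).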

[4] = system: Klebsiella pneumoniae (K. pneumoniae) 35657; assay: Antibacterial activity, MIC (Table 4); type: cell-based; conditions: K. pneumoniae 35657, read-out: MIC, 35657
Outline: as §3

A. baumannii MXX2240 = assay: Antibacterial activity, MIC, resistant strain (Table 4); type: cell-based; conditions: Acinetobacter baumannii, MXX2240; resistant A. baumannii MMX2240, multi-drug resistant clinical isolate; read-out: MIC, MMX2240
Outline: as §3

K. pneumoniae MXX1232 = assay: as above; type: cell-based; conditions: Klebsiella pneumoniae, MXX1232; resistant K. pneumoniae MMX1232, multi-drug resistant clinical isolate; read-out: MIC, MMX1232
Outline: as §3

[5] = system: Pseudomonas aeruginosa (P. aeruginosa) 27853; assay: Antibacterial activity, MIC (Table 5); type: cell-based; conditions: P. aeruginosa 27853, read-out: MIC, 27853
Outline: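 Microbroth dilution; MIC (μg/mL) = lowest concentration with no macroscopically visible growth.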

[6] = system: Haemophilus influenzae (H. influenzae) 49247; assay: Antibacterial activity, MIC (Table 6); type: cell-based
Outline: (§4)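 Broth microdilution MIC, read as the lowest drug concentration preventing macroscopically visible growth under test conditions and reported in μg/mL.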

[7] = system: Moraxella catarrhalis (M. catarrhalis) 25238; assay: Antibacterial activity, MIC (Table 7); type: cell-based
Outline: as §4

[8] = system: Neisseria meningitidis (N. meningitidis) 13090; assay: Antibacterial activity, MIC (Table 8); type: cell-based
Outline: as §4

Row | SMILES | MIC [1] [µg/mL] | MIC [2] [µg/mL] | MIC (E. coli 25922) [µg/mL] | MIC (E. coli LZ3111) [µg/mL] | MIC (E. coli ELZ4000) [µg/mL] | MIC (E. coli ELZ4251) [µg/mL] | MIC [3] [µg/mL] | MIC [4] [µg/mL] | MIC (A. baumannii MXX2240) [µg/mL] | MIC (K. pneumoniae MXX1232) [µg/mL] | MIC [5] [µg/mL] | MIC [6] [µg/mL] | MIC [7] [µg/mL] | MIC [8] [µg/mL]
1 | Cc1c(-c2ccc3c(c2)cc(CNCC2CC2)n3C)[nH]c(=O)c(C(=O)O)c1O [Cpd 315, 6-(2-((cyclopropylmethylamino)methyl)-1-methyl-1H-indol-5-yl)-4-hydroxy-5-methyl-2-oxo-1,2-dihydropyridine-3-carboxylic acid] | < 1 | 12.5 to 150 (≈ 32.8 to 393 µM) | 1 to 3.5 (≈ 2.62 to 9.18 µM) | < 1 | 1 to 3.5 (≈ 2.62 to 9.18 µM) | < 1 | 1 to 3.5 (≈ 2.62 to 9.18 µM) | 1 to 3.5 (≈ 2.62 to 9.18 µM) | 1 to 3.5 (≈ 2.62 to 9.18 µM) | 12.5 to 150 (≈ 32.8 to 393 µM) | 12.5 to 150 (≈ 32.8 to 393 µM) | 1 to 3.5 (≈ 2.62 to 9.18 µM) | 3.5 to 12.5 (≈ 9.18 to 32.8 µM) | < 1
2 | CCc1c(-c2ccc3c(c2)cc(CNCCF)n3C)[nH]c(=O)c(C(=O)O)c1O [Cpd 201, 5-ethyl-6-(2-((2-fluoroethylamino)methyl)-1-methyl-1H-indol-5-yl)-4-hydroxy-2-oxo-1,2-dihydropyridine-3-carboxylic acid] | < 1 | 3.5 to 12.5 (≈ 9.03 to 32.3 µM) | < 1 | 1 to 3.5 (≈ 2.58 to 9.03 µM) | 3.5 to 12.5 (≈ 9.03 to 32.3 µM) | 3.5 to 12.5 (≈ 9.03 to 32.3 µM) | < 1 | < 1 | 3.5 to 12.5 (≈ 9.03 to 32.3 µM) | 12.5 to 150 (≈ 32.3 to 387 µM) | 3.5 to 12.5 (≈ 9.03 to 32.3 µM) | < 1 | < 1 | < 1
3 | CCc1c(-c2ccc3c(ccn3C)c2)[nH]c(=O)c(C(=O)O)c1O [Cpd 22, 5-ethyl-4-hydroxy-6-(1-methyl-1H-indol-5-yl)-2-oxo-1,2-dihydropyridine-3-carboxylic acid] | < 1 | 1 to 3.5 (≈ 3.2 to 11.2 µM) | < 1 | 1 to 3.5 (≈ 3.2 to 11.2 µM) | 3.5 to 12.5 (≈ 11.2 to 40 µM) | 3.5 to 12.5 (≈ 11.2 to 40 µM) | < 1 | 1 to 3.5 (≈ 3.2 to 11.2 µM) | < 1 | 12.5 to 150 (≈ 40 to 480 µM) | 12.5 to 150 (≈ 40 to 480 µM) | < 1 | < 1 | < 1
4 | CCc1c(-c2ccc3c(c2)cc(CN)n3C)[nH]c(=O)c(C(=O)O)c1O [Cpd 290, 6-(2-(aminomethyl)-1-methyl-1H-indol-5-yl)-5-ethyl-4-hydroxy-2-oxo-1,2-dihydropyridine-3-carboxylic acid] | < 1 | 3.5 to 12.5 (≈ 10.3 to 36.6 µM) | < 1 | 1 to 3.5 (≈ 2.93 to 10.3 µM) | 3.5 to 12.5 (≈ 10.3 to 36.6 µM) | 3.5 to 12.5 (≈ 10.3 to 36.6 µM) | 1 to 3.5 (≈ 2.93 to 10.3 µM) | 3.5 to 12.5 (≈ 10.3 to 36.6 µM) | 12.5 to 150 (≈ 36.6 to 439 µM) | 12.5 to 150 (≈ 36.6 to 439 µM) | 1 to 3.5 (≈ 2.93 to 10.3 µM) | 1 to 3.5 (≈ 2.93 to 10.3 µM) | 1 to 3.5 (≈ 2.93 to 10.3 µM) | < 1
5 | CCc1c(-c2ccc3c(c2)cc(CNCC2CCCC2)n3C)[nH]c(=O)c(C(=O)O)c1O.Cl [Cpd 236, 6-(2-((cyclopentylmethylamino)methyl)-1-methyl-1H-indol-5-yl)-5-ethyl-4-hydroxy-2-oxo-1,2-dihydropyridine-3-carboxylic acid hydrochloride] | < 1 | 3.5 to 12.5 | < 1 | 3.5 to 12.5 | 12.5 to 150 | 12.5 to 150 | 1 to 3.5 | 1 to 3.5 | 1 to 3.5 | 12.5 to 150 | 12.5 to 150 | 1 to 3.5 | < 1 | < 1
6 | CCc1c(-c2ccc3c(c2)cc(CN2CCC(N)CC2)n3C)[nH]c(=O)c(C(=O)O)c1O [Cpd 252, 6-(2-((4-aminopiperidin-1-yl)methyl)-1-methyl-1H-indol-5-yl)-5-ethyl-4-hydroxy-2-oxo-1,2-dihydropyridine-3-carboxylic acid] | < 1 | 12.5 to 150 (≈ 29.4 to 353 µM) | 1 to 3.5 (≈ 2.36 to 8.24 µM) | 1 to 3.5 (≈ 2.36 to 8.24 µM) | 12.5 to 150 (≈ 29.4 to 353 µM) | 12.5 to 150 (≈ 29.4 to 353 µM) | 12.5 to 150 (≈ 29.4 to 353 µM) | 1 to 3.5 (≈ 2.36 to 8.24 µM) | 12.5 to 150 (≈ 29.4 to 353 µM) | 12.5 to 150 (≈ 29.4 to 353 µM) | 3.5 to 12.5 (≈ 8.24 to 29.4 µM) | 1 to 3.5 (≈ 2.36 to 8.24 µM) | 3.5 to 12.5 (≈ 8.24 to 29.4 µM) | 1 to 3.5 (≈ 2.36 to 8.24 µM)
